Measured values as given in patent US20230102554A1 (GB002, INC., priority 2019, published 2023).

Assays:
[1] = biological target: T1, Human PDGFRα, cytoplasmic domain (GST-PDGFRα) (Homo sapiens, UniProt P16234); assay: Human PDGFRα biochemical inhibition assay (off-chip Mobility Shift Assay)
T1 construct: made in house

[2] = biological target: T2, Human PDGFRβ, cytoplasmic domain (GST-PDGFRβ) (Homo sapiens, UniProt P09619); assay: Human PDGFRβ biochemical inhibition assay (off-chip Mobility Shift Assay)
T2 construct: made in house
Procedure, shortened: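 GST-tagged cytoplasmic domain (aa 557-1106) from baculovirus was incubated 1 h at room temperature with compound, CSKtide, ATP at Km and Mg²⁺ in HEPES buffer, pH 7.5. Phosphorylated and unphosphorylated peptide were separated by off-chip mobility shift, and the product ratio P/(P+S) gave percent inhibition.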

T2 sequence (P09619 with tags, fused parts or gaps): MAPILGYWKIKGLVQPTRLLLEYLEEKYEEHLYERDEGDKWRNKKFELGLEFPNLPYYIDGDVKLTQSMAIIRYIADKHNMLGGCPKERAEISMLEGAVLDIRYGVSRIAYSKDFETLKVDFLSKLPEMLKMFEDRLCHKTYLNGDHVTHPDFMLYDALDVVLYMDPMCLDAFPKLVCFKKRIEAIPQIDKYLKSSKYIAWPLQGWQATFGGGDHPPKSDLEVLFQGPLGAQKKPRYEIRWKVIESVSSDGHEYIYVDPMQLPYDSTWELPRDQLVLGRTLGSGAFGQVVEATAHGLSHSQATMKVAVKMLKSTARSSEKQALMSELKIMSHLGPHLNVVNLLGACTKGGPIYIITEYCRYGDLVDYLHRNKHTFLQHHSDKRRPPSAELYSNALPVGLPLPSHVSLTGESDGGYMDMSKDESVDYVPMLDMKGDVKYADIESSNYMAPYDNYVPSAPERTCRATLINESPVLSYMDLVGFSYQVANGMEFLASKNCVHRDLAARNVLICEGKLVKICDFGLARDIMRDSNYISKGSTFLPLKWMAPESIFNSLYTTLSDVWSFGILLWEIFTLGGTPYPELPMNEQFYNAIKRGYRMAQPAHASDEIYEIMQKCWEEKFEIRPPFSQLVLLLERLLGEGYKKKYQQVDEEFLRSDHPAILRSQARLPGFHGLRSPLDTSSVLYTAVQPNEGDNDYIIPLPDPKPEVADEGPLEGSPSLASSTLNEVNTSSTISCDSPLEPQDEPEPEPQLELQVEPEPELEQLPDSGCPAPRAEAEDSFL
T1 sequence (P16234 550-1089 T674I): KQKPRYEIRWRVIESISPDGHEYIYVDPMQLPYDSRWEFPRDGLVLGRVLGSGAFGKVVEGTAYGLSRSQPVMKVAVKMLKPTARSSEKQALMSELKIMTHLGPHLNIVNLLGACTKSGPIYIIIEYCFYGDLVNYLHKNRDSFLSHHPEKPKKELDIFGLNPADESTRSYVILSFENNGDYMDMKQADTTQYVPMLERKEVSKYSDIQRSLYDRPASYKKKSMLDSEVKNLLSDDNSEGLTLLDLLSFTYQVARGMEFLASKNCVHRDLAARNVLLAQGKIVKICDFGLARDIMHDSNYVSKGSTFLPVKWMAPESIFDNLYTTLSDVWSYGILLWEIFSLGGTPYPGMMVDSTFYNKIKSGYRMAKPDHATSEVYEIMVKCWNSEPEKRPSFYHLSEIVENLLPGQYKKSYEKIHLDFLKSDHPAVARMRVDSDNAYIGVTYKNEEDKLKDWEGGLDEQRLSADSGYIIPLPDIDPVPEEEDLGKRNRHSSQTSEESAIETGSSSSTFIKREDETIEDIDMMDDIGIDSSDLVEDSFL

C[C@H](Nc1cnc2cnn(C)c2n1)c1cccc(NC(=O)c2ccc(NC3CC3)nc2)c1 [Compound 121, (S)-6-(cyclopropylamino)-N-(3-(1-((1-methyl-1H-pyrazolo[3,4-6]pyrazin-6-yl)amino)ethyl)phenyl)nicotinamide]
IC50 [1]: < 300 nM | IC50 [2]: < 300 nM

COc1ccc(C(=O)Nc2cccc([C@H](C)Nc3cnc4cnn(C)c4n3)c2)cn1 [Compound 122, (S)-6-methoxy-N-(3-(1-((1-methyl-1H-pyrazolo[3,4-b]pyrazin-6-yl)amino)ethyl)phenyl)nicotinamide]
IC50 [1]: < 300 nM | IC50 [2]: 300 to 1000 nM

C[C@H](Nc1cnc2cnn(C)c2n1)c1cccc(NC(=O)c2ccc(C3CCC3)nc2)c1 [Compound 123, (S)-6-cyclobutyl-N-(3-(1-((1-methyl-1H-pyrazolo[3,4-b]pyrazin-6-yl)amino)ethyl)phenyl)nicotinamide]
IC50 [1]: < 300 nM | IC50 [2]: < 300 nM

Cc1ncc(C(=O)Nc2cccc([C@H](C)Nc3cnc4cnn(C)c4n3)c2)cc1C(F)(F)F [Compound 124, (S)-6-methyl-N-(3-(1-((1-methyl-1H-pyrazolo[3,4-b]pyrazin-6-yl)amino)ethyl)phenyl)-5-(trifluoromethyl) nicotinamide]
IC50 [1]: < 300 nM | IC50 [2]: < 300 nM

Cc1cc(C(=O)Nc2cccc([C@H](C)Nc3cnc4cnn(C)c4n3)c2)cnc1C(F)(F)F [Compound 125, (S)-5-methyl-N-(3-(1-((1-methyl-1H-pyrazolo[3,4-b]pyrazin-6-yl)amino)ethyl)phenyl)-6-(trifluoromethyl) nicotinamide]
IC50 [1]: < 300 nM | IC50 [2]: < 300 nM

Cc1ncc(C(F)(F)F)cc1C(=O)Nc1cccc([C@H](C)Nc2cnc3cnn(C)c3n2)c1 [Compound 126, (S)-2-methyl-N-(3-(1-((1-methyl-1H-pyrazolo[3,4-b]pyrazin-6-yl)amino)ethyl)phenyl)-5-(trifluoromethyl) nicotinamide]
IC50 [1]: 300 to 1000 nM | IC50 [2]: ≥ 1000 nM

Cc1cc(C(=O)Nc2cccc([C@H](C)Nc3cnc4cnn(C)c4n3)c2)cnc1C#N [Compound 127, (S)-6-cyano-5-methyl-N-(3-(1-((1-methyl-1H-pyrazolo[3,4-b]pyrazin-6-yl)amino)ethyl)phenyl)nicotinamide]
IC50 [1]: < 300 nM | IC50 [2]: < 300 nM

COc1ncc(C(=O)Nc2cccc([C@H](C)Nc3cnc4cnn(C)c4n3)c2)cc1C [Compound 128, (S)-6-methoxy-5-methyl-N-(3-(1-((1-methyl-1H-pyrazolo[3,4-b]pyrazin-6-yl)amino)ethyl)phenyl)nicotinamide]
IC50 [1]: < 300 nM | IC50 [2]: < 300 nM

CCOc1ncc(C(=O)Nc2cccc([C@H](C)Nc3cnc4cnn(C)c4n3)c2)cc1C [Compound 129, (S)-6-ethoxy-5-methyl-N-(3-(1-((1-methyl-1H-pyrazolo[3,4-b]pyrazin-6-yl)amino)ethyl)phenyl)nicotinamide]
IC50 [1]: < 300 nM | IC50 [2]: < 300 nM

CNc1ncc(C(=O)Nc2cccc([C@H](C)Nc3cnc4cnn(C)c4n3)c2)cc1C [Compound 130, (S)-5-methyl-N-(3-(1-((1-methyl-1H-pyrazolo[3,4-b]pyrazin-6-yl)amino)ethyl)phenyl)-6-(methylamino) nicotinamide]
IC50 [1]: < 300 nM | IC50 [2]: < 300 nM

C[C@H](Nc1cnc2cnn(C)c2n1)c1cccc(NC(=O)c2cnccc2F)c1 [Compound 131, (S)-4-fluoro-N-(3-(1-((1-methyl-1H-pyrazolo[3,4-b]pyrazin-6-yl)amino)ethyl)phenyl) nicotinamide]
IC50 [1]: 300 to 1000 nM | IC50 [2]: ≥ 1000 nM

Cc1cc(C(=O)Nc2cccc([C@H](C)Nc3cnc4cnn(C)c4n3)c2)cnn1 [Compound 132, (S)-6-methyl-N-(3-(1-((1-methyl-1H-pyrazolo[3,4-b]pyrazin-6-yl)amino)ethyl)phenyl)pyridazine-4-carboxamide]
IC50 [1]: < 300 nM | IC50 [2]: ≥ 1000 nM

Cc1ccc(C(=O)Nc2cccc([C@H](C)Nc3cnc4cnn(C)c4n3)c2)s1 [Compound 133, (S)-5-methyl-N-(3-(1-((1-methyl-1H-pyrazolo[3,4-b]pyrazin-6-yl)amino)ethyl)phenyl)thiophene-2-carboxamide]
IC50 [1]: < 300 nM | IC50 [2]: < 300 nM

C[C@H](Nc1cnc2cnn(C)c2n1)c1cccc(NC(=O)c2ccc(C(F)F)s2)c1 [Compound 134, (S)-5-(difluoromethyl)-N-(3-(1-((1-methyl-1H-pyrazolo[3,4-b]pyrazin-6-yl)amino)ethyl)phenyl)thiophene-2-carboxamide]
IC50 [1]: < 300 nM | IC50 [2]: < 300 nM

C[C@H](Nc1cnc2cnn(C)c2n1)c1cccc(NC(=O)c2ccc(Cl)s2)c1 [Compound 135, (S)-5-chloro-N-(3-(1-((1-methyl-1H-pyrazolo[3,4-b]pyrazin-6-yl)amino)ethyl)phenyl)thiophene-2-carboxamide]
IC50 [1]: < 300 nM | IC50 [2]: < 300 nM

C[C@H](Nc1cnc2cnn(C)c2n1)c1cccc(NC(=O)c2ccc(C3CC3)s2)c1 [Compound 136, (S)-5-cyclopropyl-N-(3-(1-((1-methyl-1H-pyrazolo[3,4-b]pyrazin-6-yl)amino)ethyl)phenyl)thiophene-2-carboxamide]
IC50 [1]: < 300 nM | IC50 [2]: < 300 nM

C[C@H](Nc1cnc2cnn(C)c2n1)c1cccc(NC(=O)c2ccc(C(F)(F)F)s2)c1 [Compound 137, (S)-N-(3-(1-((1-methyl-1H-pyrazolo[3,4-b]pyrazin-6-yl)amino)ethyl)phenyl)-5-(trifluoromethyl)thiophene-2-carboxamide]
IC50 [1]: < 300 nM | IC50 [2]: < 300 nM

Cc1ncc(C(=O)Nc2cccc([C@H](C)Nc3cnc4cnn(C)c4n3)c2)s1 [Compound 138, (S)-2-methyl-N-(3-(1-((1-methyl-1H-pyrazolo[3,4-b]pyrazin-6-yl)amino)ethyl)phenyl)thiazole-5-carboxamide]
IC50 [1]: < 300 nM | IC50 [2]: < 300 nM

C[C@H](Nc1cnc2cnn(C)c2n1)c1cccc(NC(=O)c2cnc(C(F)(F)F)s2)c1 [Compound 139, (S)-N-(3-(1-((1-methyl-1H-pyrazolo[3,4-b]pyrazin-6-yl)amino)ethyl)phenyl)-2-(trifluoromethyl)thiazole-5-carboxamide]
IC50 [1]: < 300 nM | IC50 [2]: < 300 nM

C[C@H](Nc1cnc2cnn(C)c2n1)c1cccc(NC(=O)c2cnc(C3CC3)s2)c1 [Compound 140, (S)-2-cyclopropyl-N-(3-(1-((1-methyl-1H-pyrazolo[3,4-b]pyrazin-6-yl)amino)ethyl)phenyl)thiazole-5-carboxamide]
IC50 [1]: < 300 nM | IC50 [2]: < 300 nM

C[C@H](Nc1cnc2cnn(C)c2n1)c1cccc(NC(=O)c2cnc(C(F)F)s2)c1 [Compound 141, (S)-2-(difluoromethyl)-N-(3-(1-((1-methyl-1H-pyrazolo[3,4-b]pyrazin-6-yl)amino)ethyl)phenyl)thiazole-5-carboxamide]
IC50 [1]: < 300 nM | IC50 [2]: < 300 nM

CC(C)c1cc(C(=O)Nc2cccc([C@H](C)Nc3cnc4cnn(C)c4n3)c2)no1 [Compound 142, (S)-5-isopropyl-N-(3-(1-((1-methyl-1H-pyrazolo[3,4-b]pyrazin-6-yl)amino)ethyl)phenyl)isoxazole-3-carboxamide]
IC50 [1]: < 300 nM | IC50 [2]: < 300 nM

C[C@H](Nc1cnc2cnn(C)c2n1)c1cccc(NC(=O)c2cc(C(C)(C)C)on2)c1 [Compound 143, (S)-5-(tert-butyl)-N-(3-(1-((1-methyl-1H-pyrazolo[3,4-b]pyrazin-6-yl)amino)ethyl)phenyl)isoxazole-3-carboxamide]
IC50 [1]: < 300 nM | IC50 [2]: < 300 nM

C[C@H](Nc1cnc2cnn(C)c2n1)c1cccc(NC(=O)c2cc(C3CC3)on2)c1 [Compound 144, (S)-5-cyclopropyl-N-(3-(1-((1-methyl-1H-pyrazolo[3,4-b]pyrazin-6-yl)amino)ethyl)phenyl)isoxazole-3-carboxamide]
IC50 [1]: < 300 nM | IC50 [2]: < 300 nM

CC(C)c1cc(C(=O)Nc2cccc([C@H](C)Nc3cnc4cnn(C)c4n3)c2)on1 [Compound 145, (S)-3-isopropyl-N-(3-(1-((1-methyl-1H-pyrazolo[3,4-b]pyrazin-6-yl)amino)ethyl)phenyl)isoxazole-5-carboxamide]
IC50 [1]: < 300 nM | IC50 [2]: < 300 nM

C[C@H](Nc1cnc2cnn(C)c2n1)c1cccc(NC(=O)c2cnn(C)c2)c1 [Compound 146, (S)-1-methyl-N-(3-(1-((1-methyl-1H-pyrazolo[3,4-b]pyrazin-6-yl)amino)ethyl)phenyl)-1H-pyrazole-4-carboxamide]
IC50 [1]: 300 to 1000 nM | IC50 [2]: ≥ 1000 nM

CC(C)n1cc(C(=O)Nc2cccc([C@H](C)Nc3cnc4cnn(C)c4n3)c2)cn1 [Compound 147, (S)-1-isopropyl-N-(3-(1-((1-methyl-1H-pyrazolo[3,4-b]pyrazin-6-yl)amino)ethyl)phenyl)-1H-pyrazole-4-carboxamide]
IC50 [1]: < 300 nM | IC50 [2]: < 300 nM

C[C@H](Nc1cnc2cnn(C)c2n1)c1cccc(NC(=O)c2cnn(C(C)(C)C)c2)c1 [Compound 148, (S)-1-(tert-butyl)-N-(3-(1-((1-methyl-1H-pyrazolo[3,4-b]pyrazin-6-yl)amino)ethyl)phenyl)-1H-pyrazole-4-carboxamide]
IC50 [1]: < 300 nM | IC50 [2]: < 300 nM

C[C@H](Nc1cnc2cnn(C)c2n1)c1cccc(NC(=O)c2cnn(C(F)F)c2)c1 [Compound 149, (S)-1-(difluoromethyl)-N-(3-(1-((1-methyl-1H-pyrazolo[3,4-b]pyrazin-6-yl)amino)ethyl)phenyl)-1H-pyrazole-4-carboxamide]
IC50 [1]: < 300 nM | IC50 [2]: < 300 nM

C[C@H](Nc1cnc2cnn(C)c2n1)c1cccc(NC(=O)c2cnn(C3CC3)c2)c1 [Compound 150, (S)-1-cyclopropyl-N-(3-(1-((1-methyl-1H-pyrazolo[3,4-b]pyrazin-6-yl)amino)ethyl)phenyl)-1H-pyrazole-4-carboxamide]
IC50 [1]: < 300 nM | IC50 [2]: < 300 nM
